As a reminder, the MIC is the lowest concentration found to suppress growth.

Our source for the MIC and oral absorption values is US5302705A, “6-O-methylerythromycin A oxime derivatives” (Taisho Pharmaceutical Co., Ltd., priority 1989, dated 1994).

For one data set, the system named is S. aureus B1. As to the kind of experiment: In vitro antibacterial activity (MIC), agar dilution technique. The data set is classed as cell-based. The conditions noted are these: Staphylococcus aureus. On the procedure:
(§1) The in vitro antibacterial activity of the compounds of the present invention against various test bacteria was measured by an agar dilution technique using sensitivity test agar (Eiken) as a test medium according to the MIC method specified by the Japan Chemotherapeutic Society.
(§2) The results are represented by the MIC value (minimum inhibitory concentration to microorganisms, mcg/ml), and shown in Table 1.
In general terms: In agar dilution, organisms are placed on agar that contains the substance at set levels.

The next data set deals with S. aureus J-109. Described as above. The data set is classed as cell-based. The conditions noted are these: Staphylococcus aureus. On the procedure:
as §1, §2

The conditions of data set [1]: in vivo; cited from earlier work.
The mark [2] stands for this setting: S. aureus B1, agar dilution, sensitivity test agar (Eiken), read-out: MIC value.
[3] abbreviates: J109, S. aureus J-109, agar dilution, sensitivity test agar (Eiken), read-out: MIC value.

In brackets after ≈: the same amount, converted by molar mass. Like-named read-outs stand apart in the source and are kept apart here.

Turning to `CC[C@H]1OC(=O)[C@H](C)[C@@H](O[C@H]2C[C@@](C)(OC)[C@@H](O)[C@H](C)O2)[C@H](C)[C@@H](O[C@@H]2O[C@H](C)C[C@H](N(C)C)[C@H]2O)[C@](C)(OC)C[C@@H](C)C(=NOC(C)c2ccccc2)[C@H](C)[C@@H](O)[C@]1(C)O` (stereo partly shown) [D], the MIC in the data set on S. aureus B1 (setting [2]) and in the data set with S. aureus J-109 (setting [3]) was 12.5 µg/mL (≈ 14.4 µM) throughout. On to `CC[C@H]1OC(=O)[C@H](C)[C@@H](O[C@H]2C[C@@](C)(OC)[C@@H](O)[C@H](C)O2)[C@H](C)[C@@H](O[C@@H]2O[C@H](C)C[C@H](N(C)C)[C@H]2O)[C@](C)(OC)C[C@@H](C)C(=NOCc2ccc(C(C)C)cc2)[C@H](C)[C@@H](O)[C@]1(C)O` [Compound No. 55], for which the minimal inhibitory concentration (MIC) in the data set with S. aureus B1 (setting [2]) and in the data set on S. aureus J-109 (setting [3]) was 12.5 µg/mL (≈ 14 µM) throughout. `CC[C@H]1OC(=O)[C@H](C)[C@@H](O[C@H]2C[C@@](C)(OC)[C@@H](O)[C@H](C)O2)[C@H](C)[C@@H](O[C@@H]2O[C@H](C)C[C@H](N(C)C)[C@H]2O)[C@](C)(OC)C[C@@H](C)C(=NOC)[C@H](C)[C@@H](O)[C@]1(C)O` [d]: the minimum inhibitory concentration (MIC) in the data set on S. aureus B1 (setting [2]) and in the data set on S. aureus J-109 (setting [3]) was greater than 100 µg/mL in each case. Consider `CC[C@H]1OC(=O)[C@H](C)[C@@H](O[C@H]2C[C@@](C)(OC)[C@@H](O)[C@H](C)O2)[C@H](C)[C@@H](O[C@@H]2O[C@H](C)C[C@H](N(C)C)[C@H]2O)[C@](C)(OC)C[C@@H](C)C(=NOCc2c(F)cccc2F)[C@H](C)[C@@H](O)[C@]1(C)O` [Compound No. 8], for which the MIC in the data set with S. aureus B1 (setting [2]) and in the data set on S. aureus J-109 (setting [3]) was 12.5 µg/mL (≈ 14.1 µM) throughout. Regarding `CC[C@H]1OC(=O)[C@H](C)[C@@H](O[C@H]2C[C@@](C)(OC)[C@@H](O)[C@H](C)O2)[C@H](C)[C@@H](O[C@@H]2O[C@H](C)C[C@H](N(C)C)[C@H]2O)[C@](C)(OC)C[C@@H](C)C(=NOCc2c3ccccc3cc3ccccc23)[C@H](C)[C@@H](O)[C@]1(C)O` [A], the minimum inhibitory concentration (MIC) with S. aureus B1 (setting [2]) and in the data set with S. aureus J-109 (setting [3]) was 6.25 µg/mL (≈ 6.56 µM) in each case.

With `CC[C@H]1OC(=O)[C@H](C)[C@@H](O[C@H]2C[C@@](C)(OC)[C@@H](O)[C@H](C)O2)[C@H](C)[C@@H](O[C@@H]2O[C@H](C)C[C@H](N(C)C)[C@H]2O)[C@](C)(OC)C[C@@H](C)C(=O)[C@H](C)[C@@H](O)[C@]1(C)O` [b], the MIC with S. aureus B1 (setting [2]) and in the data set on S. aureus J-109 (setting [3]) was greater than 100 µg/mL throughout. On to `CC[C@H]1OC(=O)[C@H](C)[C@@H](O[C@H]2C[C@@](C)(OC)[C@@H](O)[C@H](C)O2)[C@H](C)[C@@H](O[C@@H]2O[C@H](C)C[C@H](N(C)C)[C@H]2O)[C@](C)(O)C[C@@H](C)C(=O)[C@H](C)[C@@H](O)[C@]1(C)O` [Erythromycin A], for which the oral absorption entry in data set [1] was “low and inconsistent”. Turning to `CC[C@H]1OC(=O)[C@H](C)[C@@H](O[C@H]2C[C@@](C)(OC)[C@@H](O)[C@H](C)O2)[C@H](C)[C@@H](O[C@@H]2O[C@H](C)C[C@H](N(C)C)[C@H]2O)[C@](C)(OC)C[C@@H](C)C(=NOCc2c(C)cc(C)cc2C)[C@H](C)[C@@H](O)[C@]1(C)O` [Compound No. 1, 6-0-methylerythromycin A 9-[0-(2,4,6-trimethylbenzyl)oxime]], the MIC in the data set on S. aureus B1 (setting [2]) and in the data set with S. aureus J-109 (setting [3]) was 6.25 µg/mL (≈ 6.98 µM) each time. Regarding `CC[C@H]1OC(=O)[C@H](C)[C@@H](O[C@H]2C[C@@](C)(OC)[C@@H](O)[C@H](C)O2)[C@H](C)[C@@H](O[C@@H]2O[C@H](C)C[C@H](N(C)C)[C@H]2O)[C@](C)(O)C[C@@H](C)C(=O)[C@H](C)[C@@H](O)[C@]1(C)O` [a], the MIC with S. aureus B1 (B1, read-out: MIC value) was greater than 100 µg/mL; in the data set with S. aureus J-109 (J109, read-out: MIC value), greater than 100 µg/mL.

With `CC[C@H]1OC(=O)[C@H](C)[C@@H](O[C@H]2C[C@@](C)(OC)[C@@H](O)[C@H](C)O2)[C@H](C)[C@@H](O[C@@H]2O[C@H](C)C[C@H](N(C)C)[C@H]2O)[C@](C)(OC)C[C@@H](C)C(=NOCc2ccc(C(C)(C)C)cc2)[C@H](C)[C@@H](O)[C@]1(C)O` [B], the MIC in the data set on S. aureus B1 (setting [2]) and in the data set on S. aureus J-109 (setting [3]) was 6.25 µg/mL (≈ 6.87 µM) each time. Take `CC[C@H]1OC(=O)[C@H](C)[C@@H](O[C@H]2C[C@@](C)(OC)[C@@H](O)[C@H](C)O2)[C@H](C)[C@@H](O[C@@H]2O[C@H](C)C[C@H](N(C)C)[C@H]2O)[C@](C)(O)C[C@@H](C)/C(=N\OCOCCOC)[C@H](C)[C@@H](O)[C@]1(C)O` [c]: the minimal inhibitory concentration (MIC) with S. aureus B1 (setting [2]) and in the data set with S. aureus J-109 (setting [3]) was greater than 100 µg/mL in each case. For `CC[C@H]1OC(=O)[C@H](C)[C@@H](O[C@H]2C[C@@](C)(OC)[C@@H](O)[C@H](C)O2)[C@H](C)[C@@H](O[C@@H]2O[C@H](C)C[C@H](N(C)C)[C@H]2O)[C@](C)(OC)C[C@@H](C)C(=NOCC2CC3CCC2C3)[C@H](C)[C@@H](O)[C@]1(C)O` (stereo partly shown) [Compound No. 45], the MIC with S. aureus B1 (setting [2]) and in the data set on S. aureus J-109 (setting [3]) was 12.5 µg/mL (≈ 14.3 µM) each time.

As to `CC[C@H]1OC(=O)[C@H](C)[C@@H](O[C@H]2C[C@@](C)(OC)[C@@H](O)[C@H](C)O2)[C@H](C)[C@@H](O[C@@H]2O[C@H](C)C[C@H](N(C)C)[C@H]2O)[C@](C)(OC)C[C@@H](C)C(=NOCCCCc2ccccc2)[C@H](C)[C@@H](O)[C@]1(C)O` [Compound No. 56], the MIC in the data set with S. aureus B1 (setting [2]) and in the data set on S. aureus J-109 (setting [3]) was 25 µg/mL (≈ 27.9 µM) each time.
